Reference: the NIST ThermoML archive (doi:10.1021/je900690d)

Test: mean ionic activity coefficient (dimensionless); mn = molality of the nth substance listed, in mol/kg
Conditions: 101 kPa, Liquid, Electrochemical Cell

[Cl-].[K+] [potassium chloride] + O
Conditions | mean ionic activity coefficient
278.15 K, m1 = 0.0025 | 0.9474
278.15 K, m1 = 0.0054 | 0.9254
278.15 K, m1 = 0.0083 | 0.91
278.15 K, m1 = 0.014 | 0.8876
278.15 K, m1 = 0.0224 | 0.8637
278.15 K, m1 = 0.034 | 0.8398
278.15 K, m1 = 0.051 | 0.8137
278.15 K, m1 = 0.0752 | 0.7863
278.15 K, m1 = 0.1147 | 0.754
278.15 K, m1 = 0.1839 | 0.7149
278.15 K, m1 = 0.277 | 0.6787
278.15 K, m1 = 0.3883 | 0.6474
278.15 K, m1 = 0.5559 | 0.6129
278.15 K, m1 = 0.7102 | 0.5888
278.15 K, m1 = 0.8997 | 0.5653
278.15 K, m1 = 1.063 | 0.5488
278.15 K, m1 = 1.246 | 0.5333
278.15 K, m1 = 1.405 | 0.522
278.15 K, m1 = 1.547 | 0.5131
288.15 K, m1 = 0.0026 | 0.946
288.15 K, m1 = 0.005 | 0.9269
288.15 K, m1 = 0.0077 | 0.9118
288.15 K, m1 = 0.0129 | 0.8901
288.15 K, m1 = 0.0183 | 0.8733
288.15 K, m1 = 0.026 | 0.8543
288.15 K, m1 = 0.0362 | 0.8346
288.15 K, m1 = 0.0512 | 0.8123
288.15 K, m1 = 0.0744 | 0.7864
288.15 K, m1 = 0.1053 | 0.7607
288.15 K, m1 = 0.1534 | 0.7316
288.15 K, m1 = 0.2433 | 0.6945
288.15 K, m1 = 0.3142 | 0.6736
288.15 K, m1 = 0.4008 | 0.6536
288.15 K, m1 = 0.506 | 0.6346
288.15 K, m1 = 0.6305 | 0.6167
288.15 K, m1 = 0.7893 | 0.5987
288.15 K, m1 = 0.9633 | 0.5828
288.15 K, m1 = 1.142 | 0.5695
288.15 K, m1 = 1.301 | 0.5594
288.15 K, m1 = 1.44 | 0.5515
288.15 K, m1 = 1.567 | 0.545
298.15 K, m1 = 0.0025 | 0.9465
298.15 K, m1 = 0.0049 | 0.9271
298.15 K, m1 = 0.0077 | 0.9114
298.15 K, m1 = 0.0132 | 0.8888
298.15 K, m1 = 0.019 | 0.8713
298.15 K, m1 = 0.0272 | 0.8519
298.15 K, m1 = 0.0384 | 0.8318
298.15 K, m1 = 0.0529 | 0.8116
298.15 K, m1 = 0.0731 | 0.7899
298.15 K, m1 = 0.1027 | 0.766
298.15 K, m1 = 0.1458 | 0.7404
298.15 K, m1 = 0.2002 | 0.7169
298.15 K, m1 = 0.2643 | 0.6961
298.15 K, m1 = 0.3687 | 0.6714
298.15 K, m1 = 0.5383 | 0.6442
298.15 K, m1 = 0.7187 | 0.6245
298.15 K, m1 = 0.8905 | 0.6109
298.15 K, m1 = 1.09 | 0.599
298.15 K, m1 = 1.24 | 0.5921
298.15 K, m1 = 1.398 | 0.5862
308.15 K, m1 = 0.0025 | 0.9451
308.15 K, m1 = 0.005 | 0.9256
308.15 K, m1 = 0.0073 | 0.9123
308.15 K, m1 = 0.0099 | 0.9007
308.15 K, m1 = 0.0151 | 0.8818
308.15 K, m1 = 0.0226 | 0.8616
308.15 K, m1 = 0.0332 | 0.8402
308.15 K, m1 = 0.0491 | 0.8165
308.15 K, m1 = 0.075 | 0.7889
308.15 K, m1 = 0.1006 | 0.7687
308.15 K, m1 = 0.1313 | 0.7499
308.15 K, m1 = 0.1962 | 0.7209
308.15 K, m1 = 0.2752 | 0.6962
308.15 K, m1 = 0.3636 | 0.6759
308.15 K, m1 = 0.4739 | 0.657
308.15 K, m1 = 0.6044 | 0.6402
308.15 K, m1 = 0.7598 | 0.6252
308.15 K, m1 = 0.9162 | 0.6138
308.15 K, m1 = 1.087 | 0.6044
308.15 K, m1 = 1.251 | 0.5978
308.15 K, m1 = 1.397 | 0.5934
308.15 K, m1 = 1.526 | 0.5906
